Patent US20260325533A1, “CDK INHIBITOR COMPOUNDS” (ALEKSIA THERAPEUTICS, INC., priority 2023, published 2026)
pIC50: −log10 of the molar value. Like-named read-outs stand apart in the source and are kept apart here.

Tests used:
Format in all cases: biochemical
CDK4/CCND3 = CDK4/CCND3 (Homo sapiens, UniProt P11802); assay: CDK4 homogeneous time-resolved fluorescence (HTRF) kinase assay; conditions: CDK4/CCND
Outline: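 HTRF kinase assay, CDK4/CCND3 1.5 nM, ATP 1 mM, ULight-4E-BP1 peptide 50 nM, 23 °C, 60 min reaction after 20 min preincubation. Eu-anti-pThr37/46 antibody detection. 11-pt half-log curves from 10 μM → IC50.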

CDK2/CCNE1 = CDK2/CCNE1 (Homo sapiens, UniProt P24941); assay: CDK2 homogeneous time-resolved fluorescence (HTRF) kinase assay; conditions: CDK2/CCNE
Outline: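 IC50 derived from 11-point, half-log dilutions (usually top 10 μM) of compound, 1% DMSO. Kinase (3 nM CDK2/CCNE1) was preincubated with compound 20 min, then phosphorylated 50 nM ULight-4E-BP1 peptide at 1 mM ATP for 60 min, 23 °C. Europium-antibody TR-FRET read after EDTA stop.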

CDK1/CCNB1 = CDK1/CCNB1 (Homo sapiens, UniProt P06493); assay: CDK1 homogeneous time-resolved fluorescence (HTRF) kinase assay; conditions: CDK1/CCNB
CDK1/CCNB1, sequence (P06493 whole entry): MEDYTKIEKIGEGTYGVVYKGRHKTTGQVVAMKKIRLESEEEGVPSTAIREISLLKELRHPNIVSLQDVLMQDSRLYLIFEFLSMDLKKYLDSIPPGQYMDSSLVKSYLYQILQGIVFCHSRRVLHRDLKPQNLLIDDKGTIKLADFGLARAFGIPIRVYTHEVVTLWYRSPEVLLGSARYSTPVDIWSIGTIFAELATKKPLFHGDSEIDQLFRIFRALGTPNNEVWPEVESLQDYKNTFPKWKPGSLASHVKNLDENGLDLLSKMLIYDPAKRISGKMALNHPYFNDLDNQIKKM
CDK1/CCNB1, sequence (P14635 whole entry partner): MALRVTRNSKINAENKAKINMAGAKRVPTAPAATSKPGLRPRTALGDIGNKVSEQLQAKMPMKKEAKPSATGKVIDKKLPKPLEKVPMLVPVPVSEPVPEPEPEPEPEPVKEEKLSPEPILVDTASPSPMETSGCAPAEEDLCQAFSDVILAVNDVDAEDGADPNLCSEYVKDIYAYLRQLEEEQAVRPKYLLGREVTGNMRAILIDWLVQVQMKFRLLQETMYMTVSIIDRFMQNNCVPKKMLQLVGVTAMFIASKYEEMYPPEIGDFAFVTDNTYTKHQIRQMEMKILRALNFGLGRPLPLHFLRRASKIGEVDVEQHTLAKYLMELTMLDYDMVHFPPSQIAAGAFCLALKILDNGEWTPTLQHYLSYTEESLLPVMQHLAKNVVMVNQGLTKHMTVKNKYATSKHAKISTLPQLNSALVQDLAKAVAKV
Outline: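 Kinase activity is measured as Lance signal (665 nm, or 665/615 nm ratio) from europium-labelled anti-phospho-Thr37/46 antibody binding ULight-4E-BP1 peptide. Reactions contain 0.5 nM enzyme, 1 mM ATP, 1% DMSO and run 60 min at 23 °C before EDTA quench.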

CDK6/CCND1 = CDK6/CCND1 (Homo sapiens, UniProt Q00534); assay: CDK6 homogeneous time-resolved fluorescence (HTRF) kinase assay; conditions: CDK6/CCND
CDK6/CCND1, sequence (Q00534 whole entry): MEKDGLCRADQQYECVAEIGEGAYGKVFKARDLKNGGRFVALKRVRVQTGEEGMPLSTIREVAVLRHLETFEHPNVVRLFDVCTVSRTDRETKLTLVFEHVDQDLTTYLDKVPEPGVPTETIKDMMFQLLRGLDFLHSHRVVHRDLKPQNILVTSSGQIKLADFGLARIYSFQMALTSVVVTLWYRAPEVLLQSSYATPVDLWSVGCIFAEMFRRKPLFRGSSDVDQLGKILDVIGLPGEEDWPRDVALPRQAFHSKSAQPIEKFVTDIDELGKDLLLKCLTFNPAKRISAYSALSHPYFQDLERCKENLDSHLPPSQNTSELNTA
CDK6/CCND1, sequence (P24385 whole entry partner): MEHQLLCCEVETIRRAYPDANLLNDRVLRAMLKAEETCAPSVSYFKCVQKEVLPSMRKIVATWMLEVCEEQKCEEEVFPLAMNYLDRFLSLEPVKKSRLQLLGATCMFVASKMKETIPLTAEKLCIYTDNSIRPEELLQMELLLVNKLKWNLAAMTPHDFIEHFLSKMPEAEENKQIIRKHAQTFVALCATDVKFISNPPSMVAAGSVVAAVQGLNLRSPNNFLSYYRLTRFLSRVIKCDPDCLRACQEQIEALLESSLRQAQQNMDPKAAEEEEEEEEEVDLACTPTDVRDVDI
Outline: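 Recombinant CDK6/CCND1 (1 nM final) was preincubated with compound for 20 min at 23 °C in HEPES buffer with MgCl2, EGTA, DTT and Tween 20. Kinase reaction then ran 60 min at 23 °C with 1 mM ATP and 50 nM ULight-4E-BP1 (Thr37/46) peptide, and was stopped with EDTA.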

[1] = >250 nM, read-out: CDK4/CCND IC50, >250 nM
[2] = 25-250 nM, read-out: CDK2/CCNE IC50, 25-250 nM
[3] = >250 nM, read-out: CDK1/CCNB IC50 >250 nM
[4] = >250 nM, 1 mM ATP, read-out: CDK6/CCND IC50, >250 nM
[5] = x = IC50 >250 nM, read-out: CDK4/CCND IC50 (>250 nM column)
[6] = x = IC50 <25 nM, read-out: CDK2/CCNE IC50 (<25 nM)
[7] = x = IC50 >250 nM, read-out: CDK1/CCNB IC50 (>250 nM column)
[8] = x = IC50 >250 nM, read-out: CDK6/CCND IC50 (>250 nM column)
[9] = x = IC50 25-250 nM, read-out: CDK2/CCNE IC50 (25-250 nM)
[10] = 25-250 nM marked x, read-out: CDK4/CCND IC50 25-250 nM
[11] = <25 nM, read-out: CDK2/CCNE IC50 <25 nM
[12] = >250 nM marked x, read-out: CDK1/CCNB IC50 >250 nM
[13] = 25-250 nM marked x, read-out: CDK6/CCND IC50 25-250 nM
[14] = x = IC50 25-250 nM, read-out: CDK1/CCNB IC50 (25-250 nM)

CDK4/CCND3, sequence (P11802 whole entry): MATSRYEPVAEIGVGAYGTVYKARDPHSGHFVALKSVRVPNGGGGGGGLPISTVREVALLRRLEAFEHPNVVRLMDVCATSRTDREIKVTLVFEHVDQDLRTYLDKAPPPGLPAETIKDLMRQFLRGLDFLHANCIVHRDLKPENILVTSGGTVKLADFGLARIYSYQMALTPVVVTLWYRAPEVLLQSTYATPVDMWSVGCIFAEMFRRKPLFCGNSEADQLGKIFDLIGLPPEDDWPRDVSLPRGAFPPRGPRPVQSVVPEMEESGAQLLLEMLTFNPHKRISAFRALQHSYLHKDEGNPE
CDK4/CCND3, sequence (P30281 whole entry partner): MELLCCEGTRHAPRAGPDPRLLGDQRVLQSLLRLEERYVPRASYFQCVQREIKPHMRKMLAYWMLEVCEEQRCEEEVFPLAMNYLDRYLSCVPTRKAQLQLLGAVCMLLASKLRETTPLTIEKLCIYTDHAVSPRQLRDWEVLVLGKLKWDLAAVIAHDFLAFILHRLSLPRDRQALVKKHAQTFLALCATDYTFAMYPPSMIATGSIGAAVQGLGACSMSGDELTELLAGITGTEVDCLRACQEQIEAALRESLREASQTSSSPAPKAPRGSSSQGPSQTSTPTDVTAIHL

CS(=O)(=O)c1ccc(Nc2cc3c(C#Cc4ccc(C#N)s4)nccc3cn2)cc1 [Ex 900, 5-((7-((4-(methylsulfonyl)phenyl)amino)-2,6-naphthyridin-1-yl)ethynyl)thiophene-2-carbonitrile]
pIC50 (CDK4/CCND3; [1]): < 6.60
pIC50 (CDK2/CCNE1; [2]): 6.60 to 7.60
pIC50 (CDK1/CCNB1; [3]): < 6.60
pIC50 (CDK6/CCND1; [4]): < 6.60

CS(=O)(=O)c1ccc(Nc2cc3c(C#Cc4cnncc4N)nccc3cn2)cc1 [Ex 537, 5-((5-aminopyridazin-4-yl)ethynyl)-N-(4-(methylsulfonyl)phenyl)-2,6-naphthyridin-3-amine]
pIC50 (CDK4/CCND3; [5]): < 6.60
pIC50 (CDK2/CCNE1; [6]): > 7.60
pIC50 (CDK1/CCNB1; [7]): < 6.60
pIC50 (CDK6/CCND1; [8]): < 6.60

COc1ccc(NS(=O)(=O)c2ccc(Nc3cc4c(-c5ccc6c(cnn6CC(O)(C(F)(F)F)C(F)(F)F)c5C)nccc4cn3)cc2)cc1C(C)(C)O [Ex 709, N-(3-(2-hydroxypropan-2-yl)-4-methoxyphenyl)-4-((5-(4-methyl-1-(3,3,3-trifluoro-2-hydroxy-2-(trifluoromethyl)propyl)-1H-indazol-5-yl)-2,6-naphthyridin-3-yl)amino)benzenesulfonamide]
pIC50 (CDK4/CCND3; [1]): < 6.60
pIC50 (CDK2/CCNE1; [2]): 6.60 to 7.60
pIC50 (CDK1/CCNB1; [3]): < 6.60
pIC50 (CDK6/CCND1; [4]): < 6.60

COc1cncc(C#Cc2nccc3cnc(Nc4ccc(S(C)(=O)=O)cc4)cc23)n1 [Ex 585, 5-((6-methoxypyrazin-2-yl)ethynyl)-N-(4-(methylsulfonyl)phenyl)-2,6-naphthyridin-3-amine]
pIC50 (CDK4/CCND3; [5]): < 6.60
pIC50 (CDK2/CCNE1; [9]): 6.60 to 7.60
pIC50 (CDK1/CCNB1; [7]): < 6.60
pIC50 (CDK6/CCND1; [8]): < 6.60

CS(=O)(=O)c1ccc(Nc2cc3c(C#Cc4cccc5ncnn45)nccc3cn2)cc1 [Ex 535, 5-([1,2,4]triazolo[1,5-a]pyridin-5-ylethynyl)-N-(4-(methylsulfonyl)phenyl)-2,6-naphthyridin-3-amine]
pIC50 (CDK4/CCND3; [5]): < 6.60
pIC50 (CDK2/CCNE1; [9]): 6.60 to 7.60
pIC50 (CDK1/CCNB1; [7]): < 6.60
pIC50 (CDK6/CCND1; [8]): < 6.60

CNC(=O)c1ccc(C#Cc2nccc3cnc(Nc4ccc(S(C)(=O)=O)cc4)cc23)cc1 [Ex 634, N-methyl-4-((7-((4-(methylsulfonyl)phenyl)amino)-2,6-naphthyridin-1-yl)ethynyl)benzamide]
pIC50 (CDK4/CCND3; [5]): < 6.60
pIC50 (CDK2/CCNE1; [6]): > 7.60
pIC50 (CDK1/CCNB1; [7]): < 6.60
pIC50 (CDK6/CCND1; [8]): < 6.60

Cc1c(C#Cc2nccc3cnc(Nc4ccc(S(C)(=O)=O)cc4)cc23)ccnc1Cl [Ex 500, 5-((2-chloro-3-methylpyridin-4-yl)ethynyl)-N-(4-(methylsulfonyl)phenyl)-2,6-naphthyridin-3-amine]
pIC50 (CDK4/CCND3; [5]): < 6.60
pIC50 (CDK2/CCNE1; [9]): 6.60 to 7.60
pIC50 (CDK1/CCNB1; [7]): < 6.60
pIC50 (CDK6/CCND1; [8]): < 6.60

CCC1(CC)C(=O)Nc2cc(C#Cc3nccc4cnc(Nc5ccc(S(C)(=O)=O)cc5OC)cc34)ccc21 [Ex 396, 3,3-diethyl-6-((7-((2-methoxy-4-(methylsulfonyl)phenyl)amino)-2,6-naphthyridin-1-yl)ethynyl)indolin-2-one]
pIC50 (CDK4/CCND3; [5]): < 6.60
pIC50 (CDK2/CCNE1; [6]): > 7.60
pIC50 (CDK1/CCNB1; [7]): < 6.60
pIC50 (CDK6/CCND1; [8]): < 6.60

Cc1c(-c2nccc3cnc(Nc4cnc(O)c(N5CCNCC5)c4)cc23)ccc2c1cnn2CC(C)(C)O [Ex 888, 5-((5-(1-(2-hydroxy-2-methylpropyl)-4-methyl-1H-indazol-5-yl)-2,6-naphthyridin-3-yl)amino)-3-(piperazin-1-yl)pyridin-2-ol]
pIC50 (CDK4/CCND3; [1]): < 6.60
pIC50 (CDK2/CCNE1; [2]): 6.60 to 7.60
pIC50 (CDK1/CCNB1; [3]): < 6.60
pIC50 (CDK6/CCND1; [4]): < 6.60

CS(=O)(=O)c1ccc(Nc2cc3c(C#Cc4ccc(OC(F)F)cc4)nccc3cn2)cc1 [Ex 636, 5-((4-(difluoromethoxy)phenyl)ethynyl)-N-(4-(methylsulfonyl)phenyl)-2,6-naphthyridin-3-amine]
pIC50 (CDK4/CCND3; [5]): < 6.60
pIC50 (CDK2/CCNE1; [9]): 6.60 to 7.60
pIC50 (CDK1/CCNB1; [7]): < 6.60
pIC50 (CDK6/CCND1; [8]): < 6.60

CS(=O)(=O)N1CCC(Nc2cc3c(-c4cncs4)nccc3cn2)CC1 [Ex 82, N-(1-(methylsulfonyl)piperidin-4-yl)-5-(thiazol-5-yl)-2,6-naphthyridin-3-amine]
pIC50 (CDK4/CCND3; [10]): 6.60 to 7.60
pIC50 (CDK2/CCNE1; [11]): > 7.60
pIC50 (CDK1/CCNB1; [12]): < 6.60
pIC50 (CDK6/CCND1; [13]): 6.60 to 7.60

Cc1c(-c2nccc3cnc(Nc4ccc(NS(=O)(=O)c5ccccc5)cc4)cc23)ccc2c1cnn2CC(C)(C)O [Ex 787, N-(4-((5-(1-(2-hydroxy-2-methylpropyl)-4-methyl-1H-indazol-5-yl)-2,6-naphthyridin-3-yl)amino)phenyl)benzenesulfonamide]
pIC50 (CDK4/CCND3; [1]): < 6.60
pIC50 (CDK2/CCNE1; <25 nM, read-out: CDK2/CCNE IC50, <25 nM): > 7.60
pIC50 (CDK1/CCNB1; [3]): < 6.60
pIC50 (CDK6/CCND1; [4]): < 6.60

CCS(=N)(=O)c1ccc(Nc2cc3c(C#Cc4ccc(=O)[nH]n4)nccc3cn2)cc1 (racemic) [Ex 485, 6-((7-((4-(ethylsulfonimidoyl)phenyl)amino)-2,6-naphthyridin-1-yl)ethynyl)pyridazin-3(2H)-one]
pIC50 (CDK4/CCND3; [5]): < 6.60
pIC50 (CDK2/CCNE1; [6]): > 7.60
pIC50 (CDK1/CCNB1; [7]): < 6.60
pIC50 (CDK6/CCND1; [8]): < 6.60

CCS(=O)(=O)c1ccc(Nc2cc3c(C#Cc4ccc5c(c4)NC(=O)C54CC4)nccc3cn2)c(C)c1 [Ex 356, 6'-((7-((4-(ethylsulfonyl)-2-methylphenyl)amino)-2,6-naphthyridin-1-yl)ethynyl)spiro[cyclopropane-1,3'-indolin]-2'-one]
pIC50 (CDK4/CCND3; [5]): < 6.60
pIC50 (CDK2/CCNE1; [6]): > 7.60
pIC50 (CDK1/CCNB1; [14]): 6.60 to 7.60
pIC50 (CDK6/CCND1; [8]): < 6.60

CS(=O)(=O)N1CCC(Nc2cc3c(N4CCC(C#N)C4)nccc3cn2)CC1 (racemic) [Ex 45, 1-(7-((1-(methylsulfonyl)piperidin-4-yl)amino)-2,6-naphthyridin-1-yl)pyrrolidine-3-carbonitrile]
pIC50 (CDK4/CCND3; [10]): 6.60 to 7.60
pIC50 (CDK2/CCNE1; [11]): > 7.60
pIC50 (CDK1/CCNB1; [12]): < 6.60
pIC50 (CDK6/CCND1; [13]): 6.60 to 7.60

CS(=O)(=O)c1ccc(Nc2cc3c(C#Cc4ccc(C(F)(F)F)nc4)nccc3cn2)cc1 [Ex 870, N-(4-(methylsulfonyl)phenyl)-5-((6-(trifluoromethyl)pyridin-3-yl)ethynyl)-2,6-naphthyridin-3-amine]
pIC50 (CDK4/CCND3; [1]): < 6.60
pIC50 (CDK2/CCNE1; >250 nM, read-out: CDK2/CCNE IC50, >250 nM): < 6.60
pIC50 (CDK1/CCNB1; [3]): < 6.60
pIC50 (CDK6/CCND1; [4]): < 6.60

CCC1(CC)C(=O)Nc2cc(C#Cc3nccc4cnc(Nc5ccc(S(=N)(=O)C6CC6)cc5)cc34)ccc21 (single isomer, unassigned) [Ex 339, 6-((7-((4-(cyclopropanesulfonimidoyl)phenyl)amino)-2,6-naphthyridin-1-yl)ethynyl)-3,3-diethylindolin-2-one]
pIC50 (CDK4/CCND3; >250 nM marked x, read-out: CDK4/CCND IC50 >250 nM): < 6.60
pIC50 (CDK2/CCNE1; [11]): > 7.60
pIC50 (CDK1/CCNB1; 25-250 nM marked x, read-out: CDK1/CCNB IC50 25-250 nM): 6.60 to 7.60
pIC50 (CDK6/CCND1; >250 nM marked x, read-out: CDK6/CCND IC50 >250 nM): < 6.60

CNS(=O)(=O)c1ccc(Nc2cc3c(C#Cc4cccnc4N)nccc3cn2)c(F)c1 [Ex 467, 4-((5-((2-aminopyridin-3-yl)ethynyl)-2,6-naphthyridin-3-yl)amino)-3-fluoro-N-methylbenzenesulfonamide]
pIC50 (CDK4/CCND3; [5]): < 6.60
pIC50 (CDK2/CCNE1; [6]): > 7.60
pIC50 (CDK1/CCNB1; [14]): 6.60 to 7.60
pIC50 (CDK6/CCND1; [8]): < 6.60

CS(=O)(=O)N1CCC(Nc2cc3c(C4CCCC4)nccc3cn2)CC1 [Example 22, 5-cyclopentyl-N-(1-(methylsulfonyl)piperidin-4-yl)-2,6-naphthyridin-3-amine]
pIC50 (CDK4/CCND3; <25 nM, read-out: CDK4/CCND IC50 <25 nM): > 7.60
pIC50 (CDK2/CCNE1; [11]): > 7.60
pIC50 (CDK1/CCNB1; <25 nM, read-out: CDK1/CCNB IC50 <25 nM): > 7.60
pIC50 (CDK6/CCND1; <25 nM, read-out: CDK6/CCND IC50 <25 nM): > 7.60
